# Earlier results, collected in EP0551434B1 (BOARD OF REGENTS THE UNIVERSITY OF TEXAS SYSTEM, priority 1990, dated 1992).
# Molecular target: estrogen receptor (Homo sapiens, UniProt P03372)
# Settings: Salituro et al.; cited from earlier work
# estrogen receptor, sequence (P03372 whole entry): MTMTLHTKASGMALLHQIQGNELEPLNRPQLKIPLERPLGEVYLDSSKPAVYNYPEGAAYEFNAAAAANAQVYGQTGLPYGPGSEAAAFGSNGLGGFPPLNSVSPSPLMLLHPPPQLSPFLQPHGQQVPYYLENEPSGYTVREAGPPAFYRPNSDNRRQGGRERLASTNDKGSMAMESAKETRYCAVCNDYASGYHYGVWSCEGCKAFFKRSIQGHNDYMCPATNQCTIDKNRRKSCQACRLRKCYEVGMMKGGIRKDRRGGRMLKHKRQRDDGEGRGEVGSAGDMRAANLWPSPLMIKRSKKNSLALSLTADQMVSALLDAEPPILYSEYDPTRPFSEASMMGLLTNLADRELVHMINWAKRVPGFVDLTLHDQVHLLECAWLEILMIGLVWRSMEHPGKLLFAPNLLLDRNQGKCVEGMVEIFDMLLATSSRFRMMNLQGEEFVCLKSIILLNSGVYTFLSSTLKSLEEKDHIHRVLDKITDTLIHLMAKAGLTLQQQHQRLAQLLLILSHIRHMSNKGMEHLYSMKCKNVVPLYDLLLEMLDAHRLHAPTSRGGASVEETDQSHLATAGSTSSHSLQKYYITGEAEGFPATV
smiles,measurement,value
"CC/C(=C(\c1ccccc1)c1ccc(OCCN2CC2)cc1)c1ccccc1 (single isomer, unassigned) [tamoxifen azizidine cis isomer, tamoxifen azizidine]",fold less affinity than the trans isomer,50 fold
